Assay [1] deals with behavior suppressed by punishment (Rat Conflict). Nature of the assay: Suppression of Anxiety in the Adult Male Rat (conflict test). Format: in vivo. Particulars: ip, minimum effective dose, p<0.05 1-tailed vs vehicle, 3-min test session, read-out: Rat Conflict MED. Here is the method:
The anxiolytic activity of selected compounds of the invention was assessed by determining their ability to release (disinhibit) behavior that had been suppressed by punishment (Vogel, J. R. et al. Psychopharmacology 1971, 21, 1). Male rats were deprived of water for 48 hrs and were deprived of food for 24 hrs prior to testing. After the first 24 hours of water deprivation, they were placed in the conflict chamber for a training period; wherein, they were allowed 200 unpunished licks from a bottle containing tap water. The experiment was run the next day. At the expected time of peak activity, the animals were placed in the chamber and allowed access to tap water. […] Their first lick initiates a 3-min test session. Subsequently,every 20th lick was punished by a 0.2-s shock delivered via the stainless-steel drinking-tube. Vehicle-treated control animals generally were willing to accept a median number of 3 to 8 shocks per test session. […] The Wilcoxon rank-sum test (Mann-WhitneyU-test) was used to test for an increase (p<0.05, 1-tailed) in the median number of shocks in drug-treated groups, compared to a concurrently run vehicle-treated group. The biological assay is considered to be valid if the effects of a known anxiolytic (positive control) are detected, within the same experiment. A compound was considered active if there is a significant difference in the median number of shocks tolerated between the drug-treated group and the control group. The MED was defined as the minimum dose of the drug-treatment as analyzed using the Wilcoxon rank-sum test (SAS; Statistical Analysis System, version 5.16). If the MED value is greater than 10, an active dose of the compound being tested had not been determined.

Assay [2] has as its system metrazol-induced convulsions. Nature of the assay: Suppression of Metrazol-Induced Convulsions in Adult Male Mice. It is filed as in vivo, mouse (male CD1). Particulars: 0.5 h; mouse, ip; block of clonic convulsions, CD90 dose of metrazol sc, 30 min observation. Here is the method:
Compounds of the invention were tested for their ability to reduce metrazol-induced convulsions in mice (Swinyard, E. A. J. Am. Pharm Assoc. 1949, 38, 201). Male CD1 mice, were fasted at least 16 hours, were divided into equal groups and test compounds or vehicle were administered parenterally. Water was not withheld except during the period of observations. At the time of suspected peak activity, anti-pentylenetetrazol (anti-metrazol) activity was evaluated by the subcutaneous administration of the CD90 dose of metrazol (the dose of metrazol was determined from the dose-response curve producing clonic convulsions in 90% of animals that received the corresponding vehicle for this experiment). Metrazol was dissolved in 0.9% sodium chloride solution, and its dose volume was 10 mL/kg. Animals were housed individually for observation of clonic convulsions, tonic convulsions and death for a period of 30 min. Test compounds that blocked the clonic seizure component of the convulsion in at least 50% of the animals were considered active. The biological assay was considered to be valid if the effects of a known anticonvulsant (positive control) were detected, within the same experiment. Activity was reported as percent reduction of clonic convulsions from the vehicle group. The ED50 values of active compounds were calculated by the method of probits (Finney, D. J. 1971. Probit Analysis. London: Cambridge University Press) and are listed in Table 1. […] Compounds active in this screen are considered active anticonvulsion/antiepileptic agents.

Assay [3] concerns the target benzodiazepine site of the GABA-A receptor. Put plainly: Benzodiazepine Receptor Binding Assay (inhibition of 3H-flunitrazepam binding). As to conditions: 3H-flunitrazepam ca. 3 nM; 10-20 min at 25° C. As to the method:
Selected compounds, which were prepared according to the experimental details given in the following examples, were tested for binding to the benzodiazepine site of the GABA-A receptor (Williams, M. et al., J. Pharm. Exper. Therap. 1988, 248, 89). The ability of the compounds of the invention to inhibit the binding of flunitrazepam to prepared receptors was assessed. For each sample, membranes from ca. 10 mg of tissue were incubated in a K2 HPO4 -buffered incubation medium (final concentration=2.0 mL). The concentration of ligand (^3 H-flunitrazepam) was ca. 3 nM. Samples were incubated 10-20 min at 25° C., after which the membrane material and bound ligand was collected on glass fiber filter sheets using vacuum filtration. The collected material was washed with 10 mM HEPES buffered solution, and the radioactivity associated with each sample was measured by liquid scintillation spectrometry. The binding of the test drug to the receptor was determined by comparing the amount of radiolabeled ligand bound in control samples to the amount of ligand bound in the presence of the drug. Concentration-response data were analyzed in a variety of ways. The IC50 was usually calculated by transforming the data to a log-logit format, then performing a linear regression analysis. This procedure provides a Hill coefficient as well as the IC50 value. An IC50 value of over 10,000 for a particular compound would indicate that the compound was not active in this screen. This is a general screen and compounds active here are have potential utility for the treatment of one or more disorders of the central nervous system.

What is called ED50 is the dose at which the effect has come halfway, by size or by number of responders. By IC50 is commonly meant the concentration that gives 50% inhibition. Read a high IC50 as weaker potency in that assay.

Regarding `O=C1CCN2C(=C1C(=O)Nc1ccccc1F)N(Cc1ccco1)c1cc(F)ccc12` [CP# 11], in assay [1], the minimal effective dose was greater than 10 mg/kg. Further, the ED50 in assay [2] was less than 10 mg/kg. The IC50 in assay [3] was 0.59 nM.
The matching figures for `O=C1CCN2C(=C1C(=O)Nc1ccccc1F)N(Cc1c[nH]cn1)c1cc(F)ccc12` [CP# 12, 7-Fluoro-1,2-dihydro-5-[(4-imidazo)methyl]-3-oxo-N-(2-fluorophenyl)pyrido-[1,2-a]benzimidazole-4-carboxamide]: greater than 10 mg/kg, 30 mg/kg and 0.29 nM.
The matching figures for `O=C1CCN2C(=C1C(=O)Nc1ccccc1F)N(Cc1ccc[n+]([O-])c1)c1cc(F)ccc12` [CP# 13]: greater than 10 mg/kg, 3 mg/kg and 5.19 nM.
The corresponding values for `O=C1CCN2C(=C1C(=O)Nc1ccccc1F)N(Cc1cc[n+]([O-])cc1)c1cc(F)ccc12` [CP# 14] are greater than 10 mg/kg, 10 mg/kg and 13.4 nM.
With `O=C1CCN2C(=C1C(=O)Nc1ccccc1F)N(CCc1ccccn1)c1cc(F)ccc12` [CP# 15], the minimal effective dose in assay [1] came out at 10 mg/kg. In addition, the 50% effect level in assay [2] (ED50) was put at a dose of 0.3 mg/kg. For the same compound, in assay [3], the half-maximal inhibitory concentration (IC50) stood at 0.89 nM.
The corresponding values for `O=C1CCN2C(=C1C(=O)Nc1ccccc1F)N(Cc1ccncc1)c1cc(F)ccc12` [CP# 16] are greater than 10 mg/kg, 3 mg/kg and 3.01 nM.
The matching figures for `O=C1CCN2C(=C1C(=O)Nc1ccccc1F)N(Cc1cccnc1)c1cc(F)ccc12` [CP# 17, 7-Fluoro-1,2-dihydro-5-(3-pyridylmethyl)-3-oxo-N-(2-fluorophenyl)pyrido[1,2-a]benzimidazole-4-carboxamide]: greater than 10 mg/kg, 1 mg/kg and 1.27 nM.
The matching figures for `O=C1CCN2C(=C1C(=O)Nc1c(F)cccc1F)N(CCc1cccs1)c1cc(F)ccc12` [CP# 18]: greater than 10 mg/kg, 10 mg/kg and 0.61 nM.
`O=C1CCN2C(=C1C(=O)Nc1ccccc1F)N(Cc1ccsc1)c1cc(F)ccc12` [CP# 19, 7-Fluoro-1,2-dihydro-5-[(3-thienyl)methyl]-3-oxo-N-(2-fluorophenyl)pyrido-[1,2-a]benzimidazole-4-carboxamide]: the minimal effective dose in assay [1] is less than 10 mg/kg. In addition, in assay [2], the 50% effect level (ED50) was put at a dose of 0.7 mg/kg. The IC50 in assay [3] worked out at 0.71 nM.
The matching figures for `O=C1CCN2C(=C1C(=O)Nc1ccccc1F)N(CCc1ccsc1)c1cc(F)ccc12` [CP# 20, 7-Fluoro-1,2-dihydro-5-[2-(3-thienyl)ethyl]3-oxo-N-(2-fluorophenyl)pyrido[1,2-a]benzimidazole-4-carboxamide]: less than 10 mg/kg, 0.1 mg/kg and 0.096 nM.
With `O=C1CCN2C(=C1C(=O)Nc1ccccc1F)N(Cc1cccs1)c1cc(F)ccc12` [CP# 21, 7-Fluoro-1,2-dihydro-5-[(2-thienyl)methyl]-3-oxo-N-(2-fluorophenyl)pyrido-[1,2-a]benzimidazole-4-carboxamide], in assay [1], the minimal effective dose was less than 10 mg/kg. In assay [2], the 50% effective dose (ED50) is less than 1 mg/kg. This compound registered a half-maximal inhibitory concentration (IC50) in assay [3] of 0.3 nM.
The corresponding values for `O=C1CCN2C(=C1C(=O)Nc1ccccc1F)N(Cc1ccccn1)c1cc(F)ccc12` [CP# 22] are less than 10 mg/kg, less than 1 mg/kg and 2.79 nM.
The corresponding values for `O=C1CCN2C(=C1C(=O)Nc1c(F)cccc1F)N(Cc1ccsc1)c1cc(F)ccc12` [CP# 23] are greater than 10 mg/kg, greater than 10 mg/kg and 4.24 nM.
Consider `O=C1CCN2C(=C1C(=O)Nc1c(F)cccc1F)N(Cc1ccccn1)c1cc(F)ccc12` [CP# 24], for which the minimal effective dose in assay [1] came to 10 mg/kg. In assay [2], this compound returned an ED50 of 3 mg/kg. The same compound had an IC50 in assay [3] of 24.4 nM.
In the case of `O=C1CCN2C(=C1C(=O)Nc1c(F)cccc1F)N(CCc1ccsc1)c1cc(F)ccc12` [CP# 25], the minimal effective dose in assay [1] is less than 10 mg/kg. It took a dose of 3 mg/kg to reach the 50% effect level in assay [2] (ED50). In addition, in assay [3], the 50% inhibitory concentration (IC50) stood at 0.22 nM.
Regarding `O=C1CCN2C(=C1C(=O)Nc1c(F)cccc1F)N(Cc1cccs1)c1cc(F)ccc12` [CP# 26], the minimal effective dose in assay [1] was greater than 10 mg/kg. Also, the ED50 in assay [2] was less than 10 mg/kg. The compound also registered an IC50 in assay [3] of 2.98 nM.
The corresponding values for `O=C1CCN2C(=C1C(=O)Nc1c(F)cccc1F)N(Cc1ccco1)c1cc(F)ccc12` [CP# 27] are greater than 10 mg/kg, 1 mg/kg and 1.26 nM.
As for `O=C1CCN2C(=C1C(=O)Nc1ccccc1F)N(Cc1ccccn1)c1ccccc12` [CP# 28, 1,2-Dihydro-5-(2-pyridylmethyl)-3-oxo-N-(2-fluorophenyl)pyrido[1,2-a]-benzimidazole-4-carboxamide], the minimal effective dose in assay [1] was less than 10 mg/kg. In assay [2], this compound had an ED50 of 0.5 mg/kg. In assay [3], this compound came in with an IC50 of 3.77 nM.
The matching figures for `O=C1CCN2C(=C1C(=O)Nc1c(F)cccc1F)N(Cc1ccccn1)c1ccccc12` [CP# 29]: greater than 10 mg/kg, 3 mg/kg and 23.9 nM.
The corresponding values for `O=C1CCN2C(=C1C(=O)Nc1ccccc1F)N(Cc1cccnc1)c1ccccc12` [CP# 30] are 10 mg/kg, 10 mg/kg and 4.54 nM.

For the origin of these results see US5922731A, “5-[(heteroaryl)alkyl]-3-oxo-pyrido[1,2-a]benzimidazole-4-carboxamide derivatives useful in treating central nervous system disorders” (Ortho Pharmaceutical Corporation, priority 1997, dated 1999).
